Laboratory results from patent US20260083708A1, “IL-17 MODULATORS AND USES THEREOF” (NNOCARE PHARMA INC., priority 2024, published 2026).

Tests used:
IL-17AA and IL-17RA = target: T1, IL-17AA and IL-17RA (Homo sapiens, UniProt Q16552); experiment: Competitive inhibition of human IL-17AA and IL-17RA binding (HTRF); details: recombinant IL-17AA (His-tag) and IL-17RA (hFc-tag); read-out: IC50 for Inhibiting IL-AA/IL-RA Binding
T1 construct: purchased Sino Biological 12047-H07B (IL-17AA); 10895-H02H (IL-17RA)
T1 sequence (Q16552 24-155): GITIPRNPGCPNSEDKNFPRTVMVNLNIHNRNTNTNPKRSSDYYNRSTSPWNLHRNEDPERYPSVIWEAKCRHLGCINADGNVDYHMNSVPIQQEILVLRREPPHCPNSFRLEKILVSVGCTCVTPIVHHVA
Outline: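 His-IL-17AA (1 nM) premixed 1 h with anti-His-Tb (0.4 nM), and Fc-IL-17RA (1 nM) with anti-IgG-d2 (1 μg/mL); these are pre-mix levels. Compounds, diluted from 10 μM, preincubated 2 h RT with IL-17AA mix; IL-17RA mix then added, 20 min. 665/615 ratio vs no-compound and no-IL-17AA controls; IC50 by 4-parameter fit.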

[1] = test system: IL-17AF-induced IL-17 signaling pathway; experiment: Inhibition of IL-17AF-induced IL-17 signaling pathway; assay type: cell-based; details: Homo sapiens; IL-17AF used instead of IL-17AA; read-out: IC50 for Inhibiting IL-AF Signaling
Outline: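 HEK293-derived HEK-Blue IL-17 cells (IL-17RA/RC, ACT1, NF-κB/AP-1-driven SEAP) preincubated 1 hour at 37° C with serially diluted compound from 10 μM, then stimulated with IL-17AF for 20 hours. SEAP read colorimetrically at 620 nm; IC50 from 4-parameter fit of % inhibition.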

[2] = test system: IL-17AA-induced IL-17 signaling pathway; experiment: Inhibition of IL-17AA-induced IL-17 signaling pathway in HEK-Blue IL-17 reporter cells (SEAP); assay type: cell-based; details: Homo sapiens; HEK-Blue IL-17 cells, IL-17AA 2.5 ng/mL, 20 hours; read-out: IC50 for Inhibiting IL-AA Signaling
Outline: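 HEK-Blue IL-17 cells (HEK293 expressing human IL-17RA/RC, ACT1 and NF-κB/AP-1-driven SEAP), 10,000/well, pre-incubated with compound (serial dilution from 10 μM) for 1 h at 37 °C, then stimulated with IL-17AA at 2.5 ng/mL final for 20 h. SEAP in supernatant read with Quanti-Blue at 620 nm; IC50 by 4-parameter fit.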

[3] = test system: rat collagen induced arthritis (CIA) model; experiment: In vivo efficacy study in rat collagen induced arthritis (CIA) model; details: female Lewis rats, 20 mg/kg PO once a day, 14 days
Experimental: Example 45. In Vivo Efficacy Study in Rat Collagen Induced Arthritis (CIA) Model
Bovine type II collagen solution (Chondrex) was emulsified with an equal volume of incomplete Freund's adjuvant (IFA, Sigma) to achieve an emulsion with a collagen concentration of 1 mg/mL. Female Lewis rats were immunized with the emulsion (200 μL per rat) through subcutaneous injection at the base of tail. After seven days from the initial immunization, rats received a booster injection of the emulsion (100 μL per rat). Each paw of the rat was evaluated and scored on a 0-4 scale based on arthritis severity, and the arthritis score of each rat was the sum of scores from four paws. When the arthritis scores reached 2-3, rats were randomized into four groups and dosed once a day via oral gavage (PO) with vehicle, compounds 35, 49 and 66 for 14 days, respectively. The arthritis score was assessed every other day. Efficacy was calculated by [1−(T14−T0)/(V14−V0)]×100%, where T14 and V14 are the average arthritis scores of the treatment group and the vehicle group on Day 14 of measurement, respectively, while T0 and V0 are the average arthritis scores of the treatment group and the vehicle group on Day 0, respectively. Statistical significance of difference in arthritis scores between the treatment and vehicle groups was analyzed using one-way ANOVA followed by Dunnett's test, and P<0.05 was considered statistically significant.

SMILES	IC50 (IL-17AA and IL-17RA) [nM]	IC50 [1] [nM]	IC50 [2] [nM]	suppression of arthritis disease progression (arthritis score) [3]
COCC(=O)N[C@@H](c1ncnn1CC1CC1)[C@@H](C)c1ccc(NC(=O)[C@@H](NC(=O)c2nonc2C)C(C2CC2)C2CC2)c(F)c1 [Compound 39, N-((S)-1,1-dicyclopropyl-3-((4-((1R,2S)-1-(1-(cyclopropylmethyl)-1H-1,2,4-triazol-5-yl)-1-(2-methoxyacetamido)propan-2-yl)-2-fluorophenyl)amino)-3-oxopropan-2-yl)-4-methyl-1,2,5-oxadiazole-3-carboxamide]	2.2	2.6	1.8	completely suppressed arthritis disease progression
CCC(=O)N[C@@H](c1ncnn1CC1CC1)[C@@H](C)c1ccc(NC(=O)[C@@H](NC(=O)c2nonc2C)C(C2CC2)C2CC2)c(F)c1 [Compound 66, N-((S)-1,1-dicyclopropyl-3-((4-((1R,2S)-1-(1-(cyclopropylmethyl)-1H-1,2,4-triazol-5-yl)-1-propionamidopropan-2-yl)-2-fluorophenyl)amino)-3-oxopropan-2-yl)-4-methyl-1,2,5-oxadiazole-3-carboxamide]	1.1	8.4	3.3	completely suppressed arthritis disease progression
CCC(=O)N[C@@H](c1ncnn1CC1CC1)[C@@H](C)c1ccc(NC(=O)[C@@H](NC(=O)c2ccnn2CC)C(C2CC2)C2CC2)c(F)c1 [Compound 72, N-((S)-1,1-dicyclopropyl-3-((4-((1R,2S)-1-(1-(cyclopropylmethyl)-1H-1,2,4-triazol-5-yl)-1-propionamidopropan-2-yl)-2-fluorophenyl)amino)-3-oxopropan-2-yl)-1-ethyl-1H-pyrazole-5-carboxamide]	1	8.5	1.9	
[2H]C([2H])([2H])n1nccc1C(=O)N[C@H](C(=O)Nc1ccc([C@H](C)[C@@H](NC(=O)COC)c2ncnn2CC2CC2)cc1F)C(C1CC1)C1CC1 [Compound 35, N-((S)-1,1-dicyclopropyl-3-((4-((1R,2S)-1-(1-(cyclopropylmethyl)-1H-1,2,4-triazol-5-yl)-1-(2-methoxyacetamido)propan-2-yl)-2-fluorophenyl)amino)-3-oxopropan-2-yl)-1-(methyl-d3)-1H-pyrazole-5-carboxamide]	5.2	8.6	4.5	completely suppressed arthritis disease progression
CCC(=O)N[C@@H](c1ncnn1CC1CC1)[C@@H](C)c1ccc(NC(=O)[C@@H](NC(=O)c2nsnc2C)C(C2CC2)C2CC2)c(F)c1 [Compound 74, N-((S)-1,1-dicyclopropyl-3-((4-((1R,2S)-1-(1-(cyclopropylmethyl)-1H-1,2,4-triazol-5-yl)-1-propionamidopropan-2-yl)-2-fluorophenyl)amino)-3-oxopropan-2-yl)-4-methyl-1,2,5-thiadiazole-3-carboxamide]	5.4	61	31	
CCn1nccc1C(=O)N[C@H](C(=O)Nc1ccc([C@H](C)[C@@H](NC(=O)COC)c2ncnn2CC2CC2)cc1F)C(C1CC1)C1CC1 [Compound 19, N-((S)-1,1-dicyclopropyl-3-((4-((1R,2S)-1-(1-(cyclopropylmethyl)-1H-1,2,4-triazol-5-yl)-1-(2-methoxyacetamido)propan-2-yl)-2-fluorophenyl)amino)-3-oxopropan-2-yl)-1-ethyl-1H-pyrazole-5-carboxamide]	4.5	4	2.6	
CCn1nccc1C(=O)N[C@H](C(=O)Nc1ccc([C@H](C)[C@@H](NC(=O)COC)c2nncn2CC2CC2)cc1F)C(C1CC1)C1CC1 [Compound 3, N-((S)-1,1-dicyclopropyl-3-((4-((1R,2S)-1-(4-(cyclopropylmethyl)-4H-1,2,4-triazol-3-yl)-1-(2-methoxyacetamido)propan-2-yl)-2-fluorophenyl)amino)-3-oxopropan-2-yl)-1-ethyl-1H-pyrazole-5-carboxamide]	7.3	25	4.1	
